Experimental data taken from ChEMBL document CHEMBL1152860, “Synthesis and antiproliferative activity of 3-amino-N-phenyl-1H-indazole-1-carboxamides” (2009).

What was measured:
Format in all cases: functional
DU-145 = assay: Growth inhibition of human DU145 cells after 48 hrs by SRB assay; settings: DU-145, 48 h
CCRF-CEM = assay: Growth inhibition of human CCRF-CEM cells after 48 hrs by SRB assay
KM12 = assay: Growth inhibition of human KM12 cells after 48 hrs by SRB assay; settings: KM12, 48 h
NCI-H460 = assay: Growth inhibition of human NCI-H460 cells after 48 hrs by SRB assay; settings: NCI-H460, 48 h
Malme-3M = assay: Growth inhibition of human MALME-3M cells after 48 hrs by SRB assay
SNB-75 = assay: Growth inhibition of human SNB75 cells after 48 hrs by SRB assay; settings: SNB-75, 48 h
MOLT-4 = assay: Growth inhibition of human MOLT4 cells after 48 hrs by SRB assay; settings: MOLT-4, 48 h
HCT-116 = assay: Growth inhibition of human HCT116 cells after 48 hrs by SRB assay; settings: HCT-116, 48 h
SK-MEL-2 = assay: Growth inhibition of human SK-MEL-2 cells after 48 hrs by SRB assay; settings: SK-MEL-2, 48 h
T47D = assay: Growth inhibition of human T47D cells after 48 hrs by SRB assay
UACC-62 = assay: Growth inhibition of human UACC62 cells after 48 hrs by SRB assay; settings: UACC-62, 48 h
RXF 393 = assay: Growth inhibition of human […] cells after 48 hrs by SRB assay; settings: RXF 393, 48 h
SK-MEL-28 = assay: Growth inhibition of human SK-MEL-28 cells after 48 hrs by SRB assay; settings: SK-MEL-28, 48 h
BT-549 = assay: Growth inhibition of human BT549 cells after 48 hrs by SRB assay; settings: BT-549, 48 h
PC-3 = assay: Growth inhibition of human PC3 cells after 48 hrs by SRB assay; settings: PC-3, 48 h
NCI-H226 = assay: Growth inhibition of human NCI-H226 cells after 48 hrs by SRB assay; settings: NCI-H226, 48 h
HOP-92 = assay: Growth inhibition of human HOP92 cells after 48 hrs by SRB assay; settings: HOP-92, 48 h
CAKI-1 = assay: Growth inhibition of human Caki1 cells after 48 hrs by SRB assay; settings: CAKI-1, 48 h
786-0 = assay: Growth inhibition of human 786-0 cells after 48 hrs by SRB assay; settings: 786-0, 48 h
UACC-257 = assay: Growth inhibition of human UACC257 cells after 48 hrs by SRB assay; settings: UACC-257, 48 h
OVCAR-8 = assay: Growth inhibition of human OVCAR8 cells after 48 hrs by SRB assay; settings: OVCAR-8, 48 h
NCI-H23 = assay: Growth inhibition of human NCI-H23 cells after 48 hrs by SRB assay; settings: NCI-H23, 48 h
MDA-MB-231 = assay: Growth inhibition of human MDA-MB-231 cells after 48 hrs by SRB assay; settings: MDA-MB-231, 48 h
A549 = assay: Growth inhibition of human A549 cells after 48 hrs by SRB assay; settings: A549, 48 h
OVCAR-3 = assay: Growth inhibition of human OVCAR-3 cells after 48 hrs by SRB assay; settings: OVCAR-3, 48 h
NCI/ADR-RES = assay: Growth inhibition of human NCI/ADR-RES cells after 48 hrs by SRB assay
HCC 2998 = assay: Growth inhibition of human HCC2998 cells after 48 hrs by SRB assay; settings: HCC 2998, 48 h
COLO 205 = assay: Growth inhibition of human COLO205 cells after 48 hrs by SRB assay; settings: COLO 205, 48 h
UO-31 = assay: Growth inhibition of human UO31 cells after 48 hrs by SRB assay; settings: UO-31, 48 h
SR = assay: Growth inhibition of human SR cells after 48 hrs by SRB assay
IGROV-1 = assay: Growth inhibition of human IGROV1 cells after 48 hrs by SRB assay; settings: IGROV-1, 48 h
MCF7 = assay: Growth inhibition of human MCF7 cells after 48 hrs by SRB assay; settings: MCF7, 48 h
NCI-H522 = assay: Growth inhibition of human NCI-H522 cells after 48 hrs by SRB assay; settings: NCI-H522, 48 h
SNB-19 = assay: Growth inhibition of human SNB19 cells after 48 hrs by SRB assay; settings: SNB-19, 48 h
SF-539 = assay: Growth inhibition of human SF539 cells after 48 hrs by SRB assay; settings: SF-539, 48 h
SF-268 = assay: Growth inhibition of human SF268 cells after 48 hrs by SRB assay; settings: SF-268, 48 h
SK-OV-3 = assay: Growth inhibition of human SKOV3 cells after 48 hrs by SRB assay; settings: SK-OV-3, 48 h
K562 = assay: Growth inhibition of human K562 cells after 48 hrs by SRB assay; settings: K562, 48 h
MDA-MB-435 = assay: Growth inhibition of human MDA-MB-435 cells after 48 hrs by SRB assay; settings: MDA-MB-435, 48 h
A498 = assay: Growth inhibition of human A498 cells after 48 hrs by SRB assay; settings: A498, 48 h
M14 = assay: Growth inhibition of human M14 cells after 48 hrs by SRB assay; settings: M14, 48 h
SW-620 = assay: Growth inhibition of human SW620 cells after 48 hrs by SRB assay; settings: SW-620, 48 h
SN12C = assay: Growth inhibition of human SN12C cells after 48 hrs by SRB assay
ACHN = assay: Growth inhibition of human ACHN cells after 48 hrs by SRB assay
EKVX = assay: Growth inhibition of human EKVX cells after 48 hrs by SRB assay
[1] = Growth inhibition of human Hs 578T cells after 48 hrs by SRB assay
HL-60(TB) = assay: Growth inhibition of human HL-60(TB) cells after 48 hrs by SRB assay; settings: HL-60, 48 h
OVCAR-5 = assay: Growth inhibition of human OVCAR5 cells after 48 hrs by SRB assay; settings: OVCAR-5, 48 h
TK-10 = assay: Growth inhibition of human TK10 cells after 48 hrs by SRB assay; settings: TK-10, 48 h
SF-295 = assay: Growth inhibition of human SF295 cells after 48 hrs by SRB assay; settings: SF-295, 48 h
RPMI-8226 = assay: Growth inhibition of human RPMI8226 cells after 48 hrs by SRB assay; settings: RPMI-8226, 48 h
LOX IMVI = assay: Growth inhibition of human LOXIMVI cells after 48 hrs by SRB assay
HT-29 = assay: Growth inhibition of human HT-29 cells after 48 hrs by SRB assay; settings: HT-29, 48 h
OVCAR-4 = assay: Growth inhibition of human OVCAR4 cells after 48 hrs by SRB assay; settings: OVCAR-4, 48 h
HCT-15 = assay: Growth inhibition of human HCT15 cells after 48 hrs by SRB assay; settings: HCT-15, 48 h
SK-MEL-5 = assay: Growth inhibition of human SK-MEL-5 cells after 48 hrs by SRB assay; settings: SK-MEL-5, 48 h
HOP-62 = assay: Growth inhibition of human HOP62 cells after 48 hrs by SRB assay; settings: HOP-62, 48 h
NCI-H322M = assay: Growth inhibition of human NCI-H322M cells after 48 hrs by SRB assay
U-251 = assay: Growth inhibition of human U251 cells after 48 hrs by SRB assay; settings: U-251, 48 h

## COc1ccc(NC(=O)n2nc(N)c3ccccc32)cc1OC
DU-145
  GI50: 73.1 µM
CCRF-CEM
  GI50: 36.7 µM
KM12
  GI50: 67.9 µM
NCI-H460
  GI50: 34.5 µM
Malme-3M
  GI50: > 100 µM
SNB-75
  GI50: 30.6 µM
MOLT-4
  GI50: 39.4 µM
HCT-116
  GI50: 43.5 µM
SK-MEL-2
  GI50: 37.2 µM
T47D
  GI50: 33 µM
UACC-62
  GI50: 52.3 µM
RXF 393
  GI50: 95.2 µM
SK-MEL-28
  GI50: > 100 µM
BT-549
  GI50: 25.9 µM
PC-3
  GI50: 35.5 µM
NCI-H226
  GI50: 83.1 µM
HOP-92
  GI50: 24.6 µM
CAKI-1
  GI50: > 100 µM
786-0
  GI50: > 100 µM
UACC-257
  GI50: 73.6 µM
OVCAR-8
  GI50: 39.7 µM
NCI-H23
  GI50: 83.5 µM
MDA-MB-231
  GI50: 53.6 µM
A549
  GI50: 45.8 µM
OVCAR-3
  GI50: 92 µM
NCI/ADR-RES
  GI50: 37.6 µM
HCC 2998
  GI50: 61.1 µM
COLO 205
  GI50: 85.9 µM
UO-31
  GI50: 28.5 µM
SR
  GI50: 29.3 µM
IGROV-1
  GI50: 18.1 µM
MCF7
  GI50: 29.5 µM
NCI-H522
  GI50: 34.9 µM
SNB-19
  GI50: > 100 µM
SF-539
  GI50: 95.9 µM
SF-268
  GI50: 49.6 µM
SK-OV-3
  GI50: > 100 µM
K562
  GI50: 41.2 µM
MDA-MB-435
  GI50: > 100 µM
A498
  GI50: 30.3 µM
M14
  GI50: 64.9 µM
SW-620
  GI50: > 100 µM
SN12C
  GI50: > 100 µM
ACHN
  GI50: 58.3 µM
EKVX
  GI50: 54.1 µM
[1]
  GI50: 43.3 µM
HL-60(TB)
  GI50: 27.9 µM
OVCAR-5
  GI50: 45.5 µM
TK-10
  GI50: 92.4 µM
SF-295
  GI50: 37.6 µM
RPMI-8226
  GI50: 21.1 µM
LOX IMVI
  GI50: 49.3 µM
HT-29
  GI50: 48.2 µM
OVCAR-4
  GI50: 63.2 µM
HCT-15
  GI50: 44.1 µM
SK-MEL-5
  GI50: 27.9 µM
HOP-62
  GI50: 75.2 µM
NCI-H322M
  GI50: > 100 µM
U-251
  GI50: 61.7 µM

## O=C(Nc1ccc(Cc2ccccc2)cc1)Nc1nn(C(=O)Nc2ccc(Cc3ccccc3)cc2)c2ccccc12
DU-145
  GI50: 80 µM
KM12
  GI50: > 100 µM
NCI-H460
  GI50: > 100 µM
Malme-3M
  GI50: > 100 µM
SNB-75
  GI50: 33.8 µM
MOLT-4
  GI50: 63.2 µM
HCT-116
  GI50: > 100 µM
SK-MEL-2
  GI50: > 100 µM
T47D
  GI50: > 100 µM
UACC-62
  GI50: 41.6 µM
RXF 393
  GI50: 30.4 µM
SK-MEL-28
  GI50: > 100 µM
BT-549
  GI50: > 100 µM
PC-3
  GI50: > 100 µM
NCI-H226
  GI50: > 100 µM
HOP-92
  GI50: 18 µM
CAKI-1
  GI50: > 100 µM
786-0
  GI50: > 100 µM
UACC-257
  GI50: > 100 µM
OVCAR-8
  GI50: > 100 µM
NCI-H23
  GI50: > 100 µM
MDA-MB-231
  GI50: 47.1 µM
A549
  GI50: > 100 µM
OVCAR-3
  GI50: > 100 µM
NCI/ADR-RES
  GI50: > 100 µM
HCC 2998
  GI50: > 100 µM
COLO 205
  GI50: > 100 µM
UO-31
  GI50: > 100 µM
SR
  GI50: 16.3 µM
IGROV-1
  GI50: > 100 µM
MCF7
  GI50: > 100 µM
NCI-H522
  GI50: > 100 µM
SNB-19
  GI50: > 100 µM
SF-539
  GI50: > 100 µM
SF-268
  GI50: 75.6 µM
SK-OV-3
  GI50: > 100 µM
K562
  GI50: 40.5 µM
MDA-MB-435
  GI50: > 100 µM
A498
  GI50: 82.4 µM
M14
  GI50: > 100 µM
SW-620
  GI50: > 100 µM
SN12C
  GI50: > 100 µM
ACHN
  GI50: > 100 µM
EKVX
  GI50: > 100 µM
[1]
  GI50: 74.2 µM
HL-60(TB)
  GI50: > 100 µM
OVCAR-5
  GI50: > 100 µM
TK-10
  GI50: > 100 µM
SF-295
  GI50: > 100 µM
RPMI-8226
  GI50: > 100 µM
LOX IMVI
  GI50: 71 µM
HT-29
  GI50: > 100 µM
OVCAR-4
  GI50: > 100 µM
HCT-15
  GI50: > 100 µM
SK-MEL-5
  GI50: > 100 µM
HOP-62
  GI50: 59.7 µM
NCI-H322M
  GI50: > 100 µM
U-251
  GI50: 70.2 µM
